Measurements reported in PubChem BioAssay (NCI).
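Where inhibition never reached the appropriate level, the endpoint shown equals the highest concentration tested. Otherwise, values were interpolated linearly from a five-concentration, 48-hour dose response in 96-well plates. GI50: concentration for 50% inhibition of growth. The concentration for full growth arrest is given as TGI.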

Key:
Assay in all cases: NCI tumour cell line growth inhibition, 48 h
COLO 205 colon = test system: COLO 205 colon
NCI-H23 lung = test system: NCI-H23 lung
MALME-3M melanoma = test system: MALME-3M melanoma
SK-OV-3 ovarian = test system: SK-OV-3 ovarian
SF-295 CNS = test system: SF-295 CNS
HT29 colon = test system: HT29 colon
NCI-H226 lung = test system: NCI-H226 lung
U251 CNS = test system: U251 CNS
M14 melanoma = test system: M14 melanoma
BT-549 breast = test system: BT-549 breast

Compound	TGI (COLO 205 colon) [µM]	TGI (NCI-H23 lung) [µM]	TGI (MALME-3M melanoma) [µM]	TGI (SK-OV-3 ovarian) [µM]	TGI (SF-295 CNS) [µM]	TGI (HT29 colon) [µM]	TGI (NCI-H226 lung) [µM]	TGI (U251 CNS) [µM]	TGI (M14 melanoma) [µM]	GI50 (COLO 205 colon) [µM]	GI50 (NCI-H23 lung) [µM]	GI50 (MALME-3M melanoma) [µM]	GI50 (BT-549 breast) [µM]	TGI (BT-549 breast) [µM]	GI50 (SK-OV-3 ovarian) [µM]	GI50 (SF-295 CNS) [µM]	GI50 (HT29 colon) [µM]	GI50 (NCI-H226 lung) [µM]	GI50 (U251 CNS) [µM]	GI50 (M14 melanoma) [µM]
Cc1c(C(=O)/C=C/c2ccc([N+](=O)[O-])cc2)[n+](=O)c2ccccc2n1[O-]	> 100	86.7	> 100	> 100	> 100	> 100	> 100	> 100	> 100											
COc1ccc(-c2cc(-c3ccc(Cl)cc3)nc(SCCCC(=O)NO)n2)cc1OC	5.06	5.53	5.64	4.58	2.75	> 26	5.43	7.34		1.73	1.29	1.6	1.94	12	1.54	0.926	1.46	1.2	0.799	
CC(=O)[CH-]C(=O)c1ccccc1.CC(=O)[CH-]C(=O)c1ccccc1.CC(=O)[CH-]C(=O)c1ccccc1.[Cl-].[Hf+4]	> 100	> 100	39.8	> 100	> 100	> 100		> 100	60.8	34	39.1	14.8			46.1	19.8	19.1		22	18.6
CC(C)(C)c1cc(Cc2ccc(S(C)(=O)=O)cc2)c(O)c(C(C)(C)C)c1		31.3	32.7	36.2	25.8	28.6		28.7	28.9											
CCN(CC)CCOc1ccc(/C(=C(\C)Cc2ccc(OC)cc2)c2ccc(O)cc2)cc1	3.42	5.08	3.28	7.38	3.3	3.67	4.26	3.09		1.71	1.98	1.73			2.48	1.69	1.43	1.86	1.63	
CC(=O)[CH-]C(=O)c1ccccc1.CC(=O)[CH-]C(=O)c1ccccc1.CC[C@H](CCC(C)[C@H]1CCC2[C@@H]3CC=C4C[C@@H]([O-])CC[C@]4(C)C3CC[C@@]21C)C(C)C.CC[C@H](CCC(C)[C@H]1CCC2[C@@H]3CC=C4C[C@@H]([O-])CC[C@]4(C)C3CC[C@@]21C)C(C)C.Cl.[Ti+4] (stereo partly specified)	> 25	> 25	> 25	> 25	> 25	> 25	> 25	> 25	> 25						> 25					
COC1(OC)CCC2(C)OC(c3ccccc3)C1O2 (stereo unspecified)	> 100	> 100	> 100	> 100	> 100	> 100	> 100	> 100	> 100											
CC12CCC(=O)N1[C@@H](c1ccccc1)[C@@H](c1ccccc1)O2 (stereo partly specified)	> 100		> 100	> 100	> 100	> 100	> 100		> 100											
[CH3][Ge]([CH3])([CH2]CC#N)[S]c1ccccc1	52.4	46.4	> 100	55.9	41.5	32.9	33.4	22.6	43	17.5	18.3	73.7			21.7	16.5	17.8	13.1	9.85	18.8
C=C1CC[C@@](C)(c2cc(Br)c(C)cc2OC(C)=O)[C@H]1C	31.3	28.2	30.5	29.9	23.2	28.1		29.7	30.6	17.6	13.9	15.2	19	34.1	16.4	10.7	14.9		15.2	15.9
Oc1ccc(/C=N/NC(=S)Nc2ccccc2)nc1	> 100	> 100	30.6	32.6		> 100	6.83	81.8		3.31	3.34	2.19	1.7	> 100	0.748		5.83	2.33	0.65	
CCCCN(CCCC)CC(C(=O)Nc1ccc([N+](=O)[O-])cc1[N+](=O)[O-])/C(C)=N\NC(=O)c1ccncc1 (stereo unspecified)	> 100	> 100	> 100	> 100	> 100			> 100	> 100											
Nc1nc2c(ncn2C2OC(CO)C(O)C2O)c(=O)o1 (stereo unspecified)	> 100	> 100	> 100	> 100	> 100	> 100	> 100	> 100	> 100											
NC(N)=NCCCC(Nc1c2ccccc2nc2ccccc12)C(=O)O (stereo unspecified)	> 100	> 100	> 100		> 100	> 100	> 100	> 100	> 100											
NNC(=O)N/N=C(/CC1(O)C(=O)Nc2ccc(Br)cc21)c1ccccc1 (stereo unspecified)		> 100	> 100	> 100	> 100	> 100	> 100		> 100											
Cc1[nH]c2ccccc2c1/C=C/c1c(C)[nH]c2ccccc12		> 100	> 100	> 100	> 100	> 100	> 100	> 100	> 100											
C=C1C2CCCC1C1(S(C)(=O)=O)CCCCC21O (stereo unspecified)	> 100	> 100	> 100	> 100	> 100	> 100	> 100	> 100	> 100											
COc1ccc(C(=O)C(c2ccc(OC)cc2)C2(O)C(=O)Nc3c(Cl)cc(Cl)cc32)cc1 (stereo unspecified)	74.3	38.5	29.8	90.6	39.9	42.4	36.5	> 100	33.6											
